Holding throughout (assay type): in vivo, C57BL/6 mice
For test [1], the system named is Foxp3. The test can be described thus: Foxp3 expression in CD4+ T cells of E2-treated, MOG-35-55 immunized mice at peak of EAE. As to conditions: peak of disease. As for the experimental part:
FIG. 2 is a graph illustrating real-time RT-PCR analysis of Foxp3. C57BL/6 and Esr^−/− mice were implanted with placebo or 2.5 mg E2 pellets and immunized 1 week later with 200 μg MOG-35-55 peptide in CFA with pertussis toxin on days 0 and +2. At the peak of clinical disease, mice were sacrificed and splenocytes sorted for CD4+ cells. cDNA was prepared and analyzed by real-time PCR to determine Foxp3 mRNA levels. Data are presented as Foxp3 relative to housekeeping gene L32. Error bars are standard deviation of triplicate samples.
Control lane is lysate of 293T cells transfected with Foxp3 cDNA. The CD25+ fraction (among CD4+) of each sample is noted above bars.
Female naïve or syngeneic pregnant (19 days) C57BL/6 mice were purchased from Jackson Laboratory (Bar Harbor, Me.). Estrogen receptor alpha knockout (Esrl^−/−) mice were purchased from Taconic (Germantown, N.Y.). Most experiments represent cells pooled from at least five mice per experimental condition.
For E2 therapy, a 3 mm pellet containing 2.5 mg or 15 mg (as indicated) 17β-estradiol (Innovative Research of America, Sarasota, Fla.) was implanted s.c. (dorsally) 7 days prior to immunization (EAE) or 14 days prior to analysis of naïve mice. These pellets are designed to release their contents at a constant rate over 60 days. Control animals were implanted with pellets containing saline. Serum levels of E2 were monitored by RIA. […]
For real-time RT-PCR analysis, total RNA was prepared using the Total RNeasy kit (Qiagen, Germantown, Md.) and cDNA was prepared using random hexamer primers (Invitrogen, Grand Island, N.Y.). Foxp3 message expression was quantified using the ABI 7000 Real-Time PCR System (Applied Biosystems, Foster City, Calif.). Amplification was performed in a total volume of 25 μl for 40 cycles and products were detected using SYBR Green I dye (Molecular Probes, Eugene, Oreg.). Samples were run in triplicate and relative expression level was determined by normalization to L32 with results presented as relative expression (RE) units. […]

The test system of test [2] is EAE. Nature of the test: EAE induced with MOG-35-55 peptide/CFA/pertussis toxin, clinical score. From the text: Female C57BL/6 mice were pretreated with 17β-estradiol (E2) or placebo for 7 days prior to challenge with MOG-35-55 peptide/CFA/PM to induce EAE. At the peak of EAE in the placebo group (day 15 after induction), cells were harvested from both the placebo-treated mice (score=4.5-5) and E2-treated mice (score=0). Cell mixtures were combined within each treatment group. Five×10^4 CD4+CD25− responder cells in combination with 5×10^4 APC and the indicated ratios of CD4+CD25+ suppressor cells were stimulated in triplicate wells with anti-CD3 mAb for 3 days, with addition of [^3H]-thymidine for the last 12 h of culture. Representative data from two independent experiments are shown.
For E2 therapy, a 3 mm pellet containing 2.5 mg or 15 mg (as indicated) 17β-estradiol (Innovative Research of America, Sarasota, Fla.) was implanted s.c. (dorsally) 7 days prior to immunization (EAE) or 14 days prior to analysis of naïve mice. These pellets are designed to release their contents at a constant rate over 60 days. Control animals were implanted with pellets containing saline. Serum levels of E2 were monitored by RIA.
Briefly, mice were immunized s.c. in the flanks with 200 μg MOG-35-55 peptide in CFA (Difco Laboratories, Detroit, Mich.). Mice were also given pertussis toxin i.p on days 0 (75 ng) and 2 (200 ng).

Test [3] has as its system CD4+CD25− responder cells. The test can be described thus: Suppressive activity of CD4+CD25+ T cells from treated mice on CD4+CD25− responder cells (I50). As for the experimental part:
FIG. 7 illustrates the suppressive activity of CD4+CD25+ T cells recovered from placebo, E2-treated and pregnant mice was measured by their ability to suppress the growth of CD4+CD25−responder cells. Varying numbers of sorted CD4+CD25+ Treg cells from placebo-treated, E2-treated, and pregnant mice were co-cultured in triplicate for 3 days without (0:1 ratio) or with a constant number (5×10^4) of CD4+CD25−responder cells and APC (10^5) from naïve donors, and 0.5 μg/ml anti-CD3 mAb. Responder cells were also cultured alone (1:0 ratio). Proliferation was monitored by uptake of [^3H]-thymidine (1 μCi/well) for the last 12 h of culture. Data are representative of three independent experiments. *I50 values (% CD4+CD25+ cells that could inhibit the proliferation of anti-CD3-activated CD4+CD25−responder cells by 50%) represent the average of two or more independent experiments.
Female C57BL/6 mice were pretreated with 17β-estradiol (E2) or placebo for 7 days prior to challenge with MOG-35-55 peptide/CFA/PM to induce EAE. At the peak of EAE in the placebo group (day 15 after induction), cells were harvested from both the placebo-treated mice (score=4.5-5) and E2-treated mice (score=0). Cell mixtures were combined within each treatment group. […]

This note sets out measurements from patent US8053197B2, “Methods for detecting and treating autoimmune disorders” (Oregon Health & Science University, priority 2004, dated 2011).

Turning to `C[C@]12CC[C@@H]3c4ccc(O)cc4CC[C@H]3[C@@H]1CC[C@@H]2O` [E2, 17β-estradiol], the “Foxp3 mRNA levels in CD4+ T cells increased” value in test [1] (Esr1−/− mice lacking estrogen receptor-α, MOG-35-55 immunized) is “not”. The “FoxP3 protein expression and CD25+ number in E2-treated mice, Esr1−/− versus wild-type” value in test [1] (western blot and flow cytometry) was “substantially lower”. Moreover, in test [1] (wild-type C57BL/6 mice, MOG-35-55 immunized, versus placebo), the “Foxp3 mRNA levels in CD4+ T cells” value is “significantly increased”. The EAE score in test [2] (E2 pretreatment 7 days before challenge, day 15 after induction (placebo 4.5-5)) stood at 0. The “protection from EAE” value in test [2] (wild-type C57BL/6 mice, therapeutic doses of E2) is recorded as “protected from EAE”. Moreover, the “I50 of Treg suppressive activity” value in test [3] (E2-protected mice challenged for EAE, day 15, control mice with EAE 30%) came to 2.5%. In test [3] (Treg from E2-treated mice without EAE, naïve mice 22.4±[…], n=3 experiments), the “average I50 value for CD4+CD25+ Treg cells” value is 14.7±0.3%.
